According to ChEMBL document CHEMBL1149508, “From arylureas to biarylamides to aminoquinazolines: discovery of a novel, potent TRPV1 antagonist” (Bioorg Med Chem Lett, 2006):
Values after ≈ are worked out from the molar mass of the structure shown. Active and inactive are the calls of the source. The rule behind the calls is not given here.

Columns and labels:
[1] = target: T1, Transient receptor potential cation channel subfamily V member 1 (Homo sapiens, UniProt Q8NER1); experiment: Antagonist activity against capsaicin-activated human VR1 by FLIPR assay; type: functional
T1 sequence (Q8NER1 whole entry): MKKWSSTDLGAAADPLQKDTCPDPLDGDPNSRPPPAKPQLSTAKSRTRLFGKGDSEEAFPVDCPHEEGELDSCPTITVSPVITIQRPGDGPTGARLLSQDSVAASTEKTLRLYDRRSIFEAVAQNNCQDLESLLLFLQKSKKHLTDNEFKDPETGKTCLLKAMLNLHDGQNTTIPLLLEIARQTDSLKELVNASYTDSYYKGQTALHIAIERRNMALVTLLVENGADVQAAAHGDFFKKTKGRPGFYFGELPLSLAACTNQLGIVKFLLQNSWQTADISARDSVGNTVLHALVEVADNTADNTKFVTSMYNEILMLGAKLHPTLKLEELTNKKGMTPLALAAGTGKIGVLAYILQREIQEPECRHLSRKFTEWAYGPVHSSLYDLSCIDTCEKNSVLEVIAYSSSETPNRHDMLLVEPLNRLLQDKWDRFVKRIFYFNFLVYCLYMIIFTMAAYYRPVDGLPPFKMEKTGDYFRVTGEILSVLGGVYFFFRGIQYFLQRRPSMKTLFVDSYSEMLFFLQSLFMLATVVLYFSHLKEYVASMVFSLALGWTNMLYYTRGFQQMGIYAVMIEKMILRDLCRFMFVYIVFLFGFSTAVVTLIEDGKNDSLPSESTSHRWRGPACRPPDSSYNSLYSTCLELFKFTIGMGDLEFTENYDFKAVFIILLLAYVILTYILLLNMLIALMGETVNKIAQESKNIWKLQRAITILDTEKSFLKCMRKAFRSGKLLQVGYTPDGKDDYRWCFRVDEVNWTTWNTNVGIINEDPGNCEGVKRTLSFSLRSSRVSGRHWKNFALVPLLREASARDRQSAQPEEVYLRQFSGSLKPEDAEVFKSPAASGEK

[2] = target: Transient receptor potential cation channel subfamily V member 1 (Rattus norvegicus, UniProt O35433); experiment: Antagonist activity against low pH(5.0-5.5)-activated rat VR1; type: functional
Transient receptor potential cation channel subfamily V member 1 (Rattus norvegicus, UniProt O35433), sequence (O35433 whole entry): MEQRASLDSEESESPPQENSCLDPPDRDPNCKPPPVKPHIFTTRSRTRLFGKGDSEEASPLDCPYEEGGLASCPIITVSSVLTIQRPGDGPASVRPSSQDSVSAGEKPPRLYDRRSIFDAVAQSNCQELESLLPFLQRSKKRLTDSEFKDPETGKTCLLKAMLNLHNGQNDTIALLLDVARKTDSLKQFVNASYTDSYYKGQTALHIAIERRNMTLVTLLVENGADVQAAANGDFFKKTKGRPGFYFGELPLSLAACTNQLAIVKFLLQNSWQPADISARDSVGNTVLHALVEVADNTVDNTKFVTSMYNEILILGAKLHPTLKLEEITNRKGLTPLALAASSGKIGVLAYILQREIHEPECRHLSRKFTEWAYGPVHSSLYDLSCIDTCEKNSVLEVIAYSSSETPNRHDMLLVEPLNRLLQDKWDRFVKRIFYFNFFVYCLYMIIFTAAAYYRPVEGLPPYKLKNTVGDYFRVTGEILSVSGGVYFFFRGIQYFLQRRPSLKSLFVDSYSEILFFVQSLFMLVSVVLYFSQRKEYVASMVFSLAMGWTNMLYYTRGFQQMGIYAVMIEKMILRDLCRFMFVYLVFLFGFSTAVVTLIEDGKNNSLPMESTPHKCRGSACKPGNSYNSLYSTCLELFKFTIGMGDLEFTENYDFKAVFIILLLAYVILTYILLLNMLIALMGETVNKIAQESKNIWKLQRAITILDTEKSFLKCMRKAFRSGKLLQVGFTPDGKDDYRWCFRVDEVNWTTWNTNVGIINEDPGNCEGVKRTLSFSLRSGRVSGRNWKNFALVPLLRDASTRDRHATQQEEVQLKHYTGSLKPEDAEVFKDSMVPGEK

[3] = Bioavailability in rat; type: ADME, organism-based; settings: in vivo
[4] = Aqueous solubility at pH 7.4 by HTsol assay; type: physicochemical; settings: buffer
[5] = target: T1, Transient receptor potential cation channel subfamily V member 1; experiment: Agonist activity at human VR1 expressed in HEK293 cells upto 4 uM; type: functional, cell-based
[6] = Half life in rat at 3 mg/kg, iv; type: ADME, organism-based; parameters: dose 3 mg/kg, route intravenous; settings: in vivo
[7] = Clearance in rat at 3 mg/kg, iv; type: ADME, organism-based; parameters: dose 3 mg/kg, route intravenous; settings: in vivo
[8] = Volume of distribution in rat at 3 mg/kg, iv; type: ADME, organism-based; parameters: dose 3 mg/kg, route intravenous; settings: in vivo, read-out: Vdss
[9] = Tmax in rat at 3 mg/kg, iv; type: ADME, organism-based; parameters: dose 3 mg/kg, route intravenous; settings: in vivo
[10] = Bioavailability in rat at 3 mg/kg, iv; type: ADME, organism-based; settings: in vivo

IC50 [1] [nM] | IC50 [2] [nM] | Structure (SMILES) | further results
> 4000 | 1040 | COc1cc(-c2ncccc2C(F)(F)F)ccc1C(=O)Nc1ccc(C(F)(F)F)cc1 | 
259 | 263 | Cc1nc(-c2ncccc2C(F)(F)F)ccc1C(=O)Nc1ccc(C(F)(F)F)cc1 | 
> 4000 | 2400 | O=C(Nc1ccc(C(F)(F)F)cc1)c1ccc(-c2ncccc2C(F)(F)F)cc1Cl | 
58 |  | O=C(Nc1ccc(C(F)(F)F)cc1)c1ccc(-c2ncccc2Cl)cc1 | 
392 | 222 | O=C(Nc1ccc(C(F)(F)F)cc1)c1ccc(-c2ncccc2C(F)(F)F)cc1[N+](=O)[O-] | 
6 | 4 | CC(C)(C)c1ccc(NC(=O)c2ccc(-c3ncccc3C(F)(F)F)cc2)cc1 | bioavailability [3]: 2%
24 | 65 | O=C(Nc1ccc(C(F)(F)F)cn1)c1ccc(-c2ncccc2C(F)(F)F)cc1 | 
93 | 103 | Nc1cc(-c2ncccc2C(F)(F)F)ccc1C(=O)Nc1ccc(C(F)(F)F)cc1 | 
43 | 36 | O=C(Nc1ccc(C(F)(F)F)cc1)c1ccc(-c2ncccc2C(F)(F)F)cc1O | 
 | 26 | O=C(Nc1ccc(C(F)(F)F)cc1)c1ccc(-c2ncccc2C(F)(F)F)cc1 | Activity [5]: inactive
3 | 1 | CC(C)(C)c1ccc(NC(=O)c2ccc(-c3ncccc3F)cc2)cc1 | 
974 | 896 | Cc1cccnc1-c1ccc(C(=O)Nc2ccc(OC(F)(F)F)cc2)cc1 | 
257 | 192 | Cc1cc(C(=O)Nc2ccc(C(F)(F)F)cc2)ccc1-c1ncccc1C(F)(F)F | 
42 | 60 | O=C(Nc1ccc(C(F)(F)F)cc1)c1ncc(-c2ncccc2C(F)(F)F)cn1 | 
65 | 81 | Cc1cccnc1-c1ccc(C(=O)Nc2ccc(C(F)(F)F)cc2)cc1 | 
131 | 348 | O=C(Nc1ccc(C(F)(F)F)cc1)c1ccc(-c2ncccc2C(F)(F)F)cc1F | 
> 4000 |  | O=C(Nc1ccccc1)c1ccc(-c2ncccc2C(F)(F)F)cc1 | 
 | 1.4 | FC(F)(F)c1ccc(Nc2ncnc3cc(-c4ncccc4C(F)(F)F)ccc23)cc1 [NGD-8243] | half-life [6]: 8.1 h; clearance [7]: 23 mL/min/kg; Vd [8]: 12.5 L/kg; Tmax [9]: 0.7 h; bioavailability [10]: 99%; Activity [5]: inactive
8 | 2 | CC(C)(C)c1ccc(NC(=O)c2ccc(-c3ncccc3Cl)cc2)cc1 | 
> 4000 | > 4000 | CS(=O)(=O)N(c1cc(-c2ncccc2C(F)(F)F)ccc1C(=O)Nc1ccc(C(F)(F)F)cc1)S(C)(=O)=O | 
> 4000 | 764 | O=C(Nc1ccc(C(F)(F)F)cc1)c1ccc(-c2ncccc2C(F)(F)F)nc1O | 
1020 | 722 | CS(=O)(=O)Nc1cc(-c2ncccc2C(F)(F)F)ccc1C(=O)Nc1ccc(C(F)(F)F)cc1 | 
233 | 190 | Cc1cc(C(=O)Nc2ccc(C(F)(F)F)cc2)ccc1-c1ncccc1C | 
60 | 56 | O=C(Nc1ccc(C(F)(F)F)cc1)c1ccc(-c2ncccc2C(F)(F)F)nc1 | 
123 | 325 | CC(C)(C)c1ccc(NC(=O)c2ccc(-c3ncccc3N)cc2)cc1 | 
417 | 1300 | N#Cc1ccc(NC(=O)c2ccc(-c3ncccc3C(F)(F)F)cc2)cc1 | 

More lines, now with the values behind:

Structure (SMILES) | IC50 [1] [nM] | IC50 [2] [nM] | further results
CC(C)(C)c1ccc(NC(=O)c2ccc(-c3ncccc3C(=N)N)cc2)cc1 | > 4000 | > 4000 | 
Cc1cccnc1-c1ccc(C(=O)Nc2ccc(C(F)(F)F)cc2)cn1 | 624 | 583 | 
COc1ccc(NC(=O)c2ccc(-c3ncccc3C)cc2)cc1 | > 4000 | > 4000 | 
CC(C)(C)c1ccc(NC(=O)c2ccc(-c3ncccc3[N+](=O)[O-])cc2)cc1 | 5 | 5 | 
Cc1nnc(-c2cccnc2-c2ccc(C(=O)Nc3ccc(C(C)(C)C)cc3)cc2)o1 | 387 | 34 | 
CCCOc1cccnc1-c1ccc(C(=O)Nc2ccc(C(C)(C)C)cc2)cc1 | 62 | 20 | 
CC(C)(C)c1ccc(NC(=O)c2ccc(-c3ncccc3-c3ncc[nH]3)cc2)cc1 | 3670 | 694 | 
Cc1ccc(NC(=O)c2ccc(-c3ncccc3C)cc2)cc1 | 2580 | > 4000 | 
CC(=O)Nc1cccnc1-c1ccc(C(=O)Nc2ccc(C(C)(C)C)cc2)cc1 | 1110 | 290 | 
CC(C)(C)c1ccc(NC(=O)c2ccc(-c3ncccc3CN3CCCC3)cc2)cc1 | 1530 | 196 | 
CCCNc1cccnc1-c1ccc(C(=O)Nc2ccc(C(C)(C)C)cc2)cc1 | 158 | 37 | 
CC(C)(C)c1ccc(NC(=O)c2ccc(-c3ncccc3-c3nnco3)cc2)cc1 | 91 | 59 | 
Cc1cccnc1-c1ccc(C(=O)Nc2ccc(C(F)(F)F)cc2)nc1 | 1780 | 1580 | 
Cc1cccnc1-c1ccc(C(=O)Nc2ccc(F)cc2)cc1 | > 4000 | > 4000 | 
CC(C)(C)c1ccc(NC(=O)c2ccc(-c3ncccc3C#N)cc2)cc1 | 30 | 13 | 
CC(C)(C)c1ccc(NC(=O)c2ccc(-c3ncccc3NS(C)(=O)=O)cc2)cc1 | 152 | 35 | 
CC(C)(C)c1ccc(NC(=O)c2ccc(-c3ncccc3CO)cc2)cc1 | 168 | 88 | 
Cc1cccnc1-c1ccc(C(=O)Nc2ccc(C(C)C)cc2)cc1 | 73 | 43 | 
CC(C)(C)c1ccc(NC(=O)c2ccc(-c3ncccc3NS(=O)(=O)Cc3ccccc3)cc2)cc1 | 377 | 159 | 

Structure (SMILES) | IC50 [1] [nM] | IC50 [2] [nM] | further results
CC(C)(C)c1ccc(NC(=O)c2ccc(-c3ncccc3C(=O)O)cc2)cc1 | > 4000 | 560 | solubility [4]: 104 µg/mL (≈ 278 µM)
CC(C)(C)c1ccc(NC(=O)c2ccc(-c3ccccn3)cc2)cc1 | 11 | 8 | 
CC(C)(C)c1ccc(NC(=O)c2ccc(-c3ncccc3NC3CCCC3)cc2)cc1 | 190 | 44 | 
Cc1cccnc1-c1ccc(C(=O)Nc2ccc(Br)cc2)cc1 | 189 | 366 | 
CCS(=O)(=O)Nc1cccnc1-c1ccc(C(=O)Nc2ccc(C(C)(C)C)cc2)cc1 | 49 | 4 | solubility [4]: 1 µg/mL (≈ 2.29 µM)
CCCNCc1cccnc1-c1ccc(C(=O)Nc2ccc(C(C)(C)C)cc2)cc1 | 4300 | 639 | 
CN(C)Cc1cccnc1-c1ccc(C(=O)Nc2ccc(C(C)(C)C)cc2)cc1 | 746 | 234 | solubility [4]: 50 µg/mL (≈ 129 µM)
CC(C)(C)c1ccc(NC(=O)c2ccc(-c3ncccc3NO)cc2)cc1 | 49 | 5 | 
Cc1cccnc1-c1ccc(C(=O)Nc2ccc(C(C)(C)C)cc2)cc1 |  | 9 | 
CC(C)(C)c1ccc(NC(=O)c2ccc(-c3ncccc3N(S(C)(=O)=O)S(C)(=O)=O)cc2)cc1 | 0.8 | 0.4 | solubility [4]: 1 µg/mL (≈ 1.99 µM)
CCCCS(=O)(=O)Nc1cccnc1-c1ccc(C(=O)Nc2ccc(C(C)(C)C)cc2)cc1 | 162 | 141 | 
CN(c1cccnc1-c1ccc(C(=O)Nc2ccc(C(C)(C)C)cc2)cc1)S(C)(=O)=O | 39 | 9 | solubility [4]: 1 µg/mL (≈ 2.29 µM)
Cc1cc(-c2ncccc2C)ccc1C(=O)Nc1ccc(C(F)(F)F)cc1 | > 4000 | > 4000 | 
C[C@@H]1CN(c2ncccc2C(F)(F)F)CCN1C(=O)Nc1ccc(C(F)(F)F)cc1 | 17 | 11 | half-life [6]: 7.2 h; clearance [7]: 39 mL/min/kg; Vd [8]: 12 L/kg; Tmax [9]: 0.5 h; bioavailability [10]: 27%; Activity [5]: inactive
Cc1cccnc1-c1ccc(C(=O)Nc2ccccn2)cc1 | > 4000 | > 4000 | 
Cc1cccnc1-c1ccc(C(=O)Nc2ccc(Cl)cc2)cc1 | 1500 | 2020 | 
CC(C)(C)c1ccc(NC(=O)c2ccc(-c3ncccc3-c3nnn[nH]3)cc2)cc1 | > 4000 | > 4000 | 
CCN(CC)Cc1cccnc1-c1ccc(C(=O)Nc2ccc(C(C)(C)C)cc2)cc1 | 1410 | 334 | 
CC(C)(C)c1ccc(NC(=O)c2ccc(-c3ncccc3NS(=O)(=O)c3ccccc3)cc2)cc1 | 91 | 166 | solubility [4]: 1 µg/mL (≈ 2.06 µM)
